Reference: patent publication US11034702B2, “Thienoisoquinolines and their derivatives for the treatment of cancer” (VALORBEC, SOCIÉTÉ EN COMMANDITE, priority 2016, dated 2021)
pIC50: −log10 of the molar value. “Also recorded” adds a separate entry of the source.

How the values were obtained:
[1] = test system: HFF1 (fibroblast) non-cancer cells; test: IC50 (viability) in HFF1 non-cancer cells; format: cell-based; settings: Homo sapiens; HFF-1 non-cancer cells
Protocol: 19 variants with different structural modifications have been made. […] In particular, it is shown that C75 causes death in multiple cancer cells with IC50 values in the 100 nM range, including breast cancers (MCF7, BT549), lung cancer (A549), colorectal cancer (HCT116) in addition to HeLa cells (cervical cancer).

[2] = test system: H1299 (non-small cell lung cancer) cells; test: Mitotic arrest (percentage of cells in mitosis) in H1299 cells; format: cell-based, human; settings: H1299, least responsive line
Protocol: (§1) FIG. 2A) is a line graph showing the percentage of HCT116 (p53−/−) cells, A549 cells, HeLa cells and H1299 cells in mitosis after treatment with various concentrations of C75 for one population doubling time. All of the cell lines show an increase in the proportion of mitotic cells after treatment with 200 nM C75. The bars indicate standard deviation. […] While the mitotic spindles were not dramatically altered by C75 in HFF1 cells, they were monopolar (as shown) or fragmented in the other cell types. […] The mitotic spindles were more strongly fragmented after C75 treatment in these cells vs. the cells in FIG. 2B). […] While mitotic spindles recovered bipolarity after removing nocodazole, they remained multipolar after removing C75. FIG. 2F) is a series of time-lapse images of a live HeLa cell expressing GFP:tubulin after treatment with C75 as shown in 2D) and 2E). The scale bar for all cells is 10 μm. FIG. 2G) is a schematic showing the putative target for C75. […]
(§2) C75 was also tested for efficacy in different cancer cell lines. […] To further assess the role of C75 in affecting centrosomes, HeLa cells were treated with C75 for a short period of time (5 minutes), then C75 was removed and the cells were analyzed for spindle phenotypes (schematic in FIG. 2D). […]

HeLa cells = test: Mitotic spindle / centrosome phenotype in HeLa cells (tubulin and DAPI staining, live imaging); format: cell-based, human
Protocol: (§3) There were more rounded mitotic cells after C75 treatment in comparison to the control. FIG. 1B) is a line graph showing the percentage of HeLa and HFF1 cells in mitosis after treatment with various concentrations of C75 for 8 hours. The bars indicate standard deviation. FIG. 1C) is a series of images showing cells that were fixed and co-stained for tubulin (microtubules) and DAPI (DNA). Treatment of HeLa cells with 300 nM C75 caused the mitotic spindles to be disorganized, while they were not affected in HFF1 cells. […] The scale bar for the cells is 10 μm. FIG. 1D) is a cartoon schematic showing the key features of a metaphase cell.
FIG. 2A) is a line graph showing the percentage of HCT116 (p53−/−) cells, A549 cells, HeLa cells and H1299 cells in mitosis after treatment with various concentrations of C75 for one population doubling time. All of the cell lines show an increase in the proportion of mitotic cells after treatment with 200 nM C75. The bars indicate standard deviation. […] While the mitotic spindles were not dramatically altered by C75 in HFF1 cells, they were monopolar (as shown) or fragmented in the other cell types. […] The mitotic spindles were more strongly fragmented after C75 treatment in these cells vs. the cells in FIG. 2B). […] While mitotic spindles recovered bipolarity after removing nocodazole, they remained multipolar after removing C75. FIG. 2F) is a series of time-lapse images of a live HeLa cell expressing GFP:tubulin after treatment with C75 as shown in 2D) and 2E). The scale bar for all cells is 10 μm. FIG. 2G) is a schematic showing the putative target for C75. Healthy cells have two centrosomes that separate and form a bipolar spindle, while cancer cells have aberrant centrosomes that cluster to form ‘pseudo’ bipolar spindles, and C75 may target this process and their integrity.
FIG. 3A) is a line graph showing the percentage of mitotic HeLa or HFF1 cells treated with a range of paclitaxel (Taxol™; tubulin-targeting drug) concentrations+/−C75 as indicated. The bars indicate standard deviation. FIG. 3B) is a series of bar graphs showing the proportion of HCT116 cells that have monopolar spindles, bipolar spindles with aligned chromosomes, bipolar spindles with misaligned chromosomes and multipolar/fragmented spindles after treatments as shown. Treatments include DMSO (control), varying concentrations of paclitaxel and/or varying concentrations of C75 after 7 hours. While treatment of HCT116 cells with 2.5 nM paclitaxel caused a threshold of mitotic spindle phenotypes, adding increasing concentrations of C75 in combination with 2.5 nM paclitaxel caused the phenotypes to progressively worsen. FIG. 3C) is bar graph showing the average distance between centrosome fragments in HCT116 cells after treatments as shown. While centrosome fragments moved closer together with increased concentrations of paclitaxel, they moved further apart with increased concentrations of C75. […] FIG. 3E) is a line graph showing the percentage of mitotic HeLa or HFF1 cells treated with a range of nocodazole concentrations+/−C75 as indicated. The bars indicate standard deviation. FIG. 3F) is a series of images showing fixed HeLa cells after treatment with C75+/− nocodazole co-stained for tubulin, γ-tubulin and DNA (DAPI). […] Adding nocodazole to cells treated with 300 nM C75 caused mitotic spindle phenotypes to worsen and appear more similar to those after treatment with 600 nM C75. The scale bar for all cells is 10 μm. FIG. 3G) is a bar graph showing the percentage of phenotypes observed for metaphase HeLa cells treated with nocodazole or C75, or both for 20 minutes (n>15 per treatment).
Spindle fragmentation only occurred after extensive microtubule depolymerization in colchicine-treated cells, while the spindle poles fragmented prior to changes in microtubules after C75 treatment. The scale bar for all cells is 10 μm.
C75 was further tested and found to cause mitotic arrest in HeLa cells. […]

HFF1 cells = test: Mitotic spindle phenotype in HFF1 cells; format: cell-based
Protocol: as §3
FIG. 2A) is a line graph showing the percentage of HCT116 (p53−/−) cells, A549 cells, HeLa cells and H1299 cells in mitosis after treatment with various concentrations of C75 for one population doubling time. All of the cell lines show an increase in the proportion of mitotic cells after treatment with 200 nM C75. The bars indicate standard deviation. […]
as §2

H1299 cells = test: Mitotic spindle phenotype in H1299 cells; format: cell-based, human; settings: H1299, 300 nM, 6-8 hours
Protocol: as §1, §2

BT-549 cells = test: Mitotic spindle phenotype in BT-549 cells; format: cell-based, human; settings: BT-549, 300 nM, 6-8 hours
Protocol: as §1, §2

A549 cells = test: Mitotic spindle phenotype in A549 cells; format: cell-based, human; settings: A549, 300 nM, 6-8 hours
Protocol: as §1, §2

## COc1ccc(S(=O)(=O)N2Cc3ccccc3-c3sc(Br)cc32)cc1 [Compound C75]
[1]
  pIC50: 6.33
[2]
  concentration at which mitotic cells increase: 200 nM
HeLa cells; HeLa, 300 nM
  mitotic spindle phenotype: spindle organization was perturbed; also recorded: most of the spindles were severely fragmented
HeLa cells; HeLa, 750 nM
  mitotic spindle phenotype: Centrosomes were fragmented or declustered and microtubules were completely absent; also recorded: complete fragmentation of the mitotic spindles
HeLa cells; HeLa, 8 hours, 30 nM colchicine or 300 nM C75
  spindle phenotype at lower concentrations: disrupted spindle poles
HeLa cells; HeLa, 8 hours, 40 or 50 nM colchicine, 400 or 500 nM C75
  spindle phenotype at higher concentrations: spindle fragmentation prior to extensive loss of microtubules
HeLa cells; live imaging, HeLa GFP:tubulin
  time after exposure until centrosomes fragmented or declustered and microtubules collapsed: 4 to 6 min
HeLa cells; live imaging, HeLa, after wash-out, spindles tri- or multipolar
  time until microtubule polymers grew again: 20 to 30 min
HeLa cells; metaphase HeLa, 5 minutes treatment, washed out, imaged after 40 minutes
  spindle phenotype after drug wash-out: tri- or multipolar spindles formed
HeLa cells; metaphase HeLa, nocodazole or C75 or both, 20 minutes
  spindle phenotype, drugs alone vs. together: disorganized and/or fragmented mitotic spindles
HFF1 cells; HFF1, 300 nM
  mitotic spindle phenotype: not affected; also recorded: majority of HFF1 cells had bipolar spindles
HFF1 cells; HFF1, 750 nM
  mitotic spindle phenotype: disorganized
H1299 cells
  mitotic spindle phenotype: mix of monopolar, bipolar and multipolar spindles
BT-549 cells
  mitotic spindle phenotype: most of the spindles were severely fragmented
A549 cells
  mitotic spindle phenotype: most of the spindles were severely fragmented
